The text below walks through data of patent publication US8343509B2, “Methods and compositions for detection of bacteria and treatment of diseases and disorders” (priority 2008, dated 2013).

Data set [1] relates to Escherichia coli Nissle 1917 (EcN). The data set is described as follows: In vitro tracer uptake into E. coli Nissle culture (gamma counter). The format is cell-based. To be noted: 0.925 MBq tracer, culture grown at 37° C. for 4 hours.
Experimental: An overnight culture of EcN was diluted 1:50 into 5 ml fresh LB-broth, supplemented with 0.925 MBq (25 μCi) of [^18F]-FDG or [^18F]-FEAU. The cultures were grown at 37° C. for 4 hours. The bacteria were harvested by centrifugation, washed twice with PBS and the radioactivity in the pelleted bacteria and medium was measured in a gamma counter (Packard, United Technologies, Downers Grove, Ill.).
The subject of data set [2] is E. coli Nissle. To be noted: for tumor-to-organ ratio, heart / tumor-to-organ ratio, liver / tumor-to-organ ratio, muscle: PET.
Experimental: The in vivo uptake of [^18F]-FDG and [^18F]-FEAU by administered EcN bacteria was studied using a mouse tumor model and imaged by positron emission tomography (PET) scanning.
At two weeks post tumor cell implantation (tumor diameter >5 mm), the EcN bacteria (4×10^6 CFU in 100 μl PBS) were administered systemically by lateral tail vein injection into the tumor bearing mice. Control mice were injected with 100 μl PBS via tail vein.
Prior to tracer administration, [^18F]-FDG or [^18F]-FEAU, the animals were starved 12 h and kept under anesthesia between tracer injection and imaging. In the [^18F]-FDG experimental group of mice (n=6 for each time point), each animal was injected intravenously by tail vein with 9.25 MBq (250 μCi) of [^18F]-FDG at either 16 or 72 hours after administration of EcN. Control mice received 9.25 MBq (250 μCi) of [^18F]-FDG following administration of PBS. [^18F]-FDG FDG PET scanning was performed 1 h after tracer administration using a 10 minute list mode acquisition.
In the [^18F]-FEAU experimental group of mice (n=8 for each time point), each animal was injected intravenously by tail vein with 9.25 MBq (250 μCi) of [^18F]-FEAU at either 16 or 72 hours after administration of EcN. Control mice received 9.25 MBq (250 μCi) of [^18F]-FEAU following administration of 100 μl PBS. [^18F]-FDG PET scanning was performed 2 h after tracer administration using a 10 minute list mode acquisition.
Imaging was performed using a Focus 120 microPET™ dedicated small-animal PET scanner (Concorde Microsystems Inc, Knoxyille, Tenn.). Mice were maintained under 2% isofluorane anesthesia with an oxygen flow rate of 2 l/min during the entire scanning period. Three-dimensional (3D) list-mode data were acquired using an energy window of 350-700 keV for ^18F and 410-580 keV for ^124I, respectively and a coincidence timing window of 6 ns. […] Transverse images were reconstructed by filtered back-projection using a ramp filter with a cut-off frequency equal to the Nyquist frequency in a 128×128×94matrix comprised of 0.866×0.866×0.866-mm voxels. The image data were corrected for (a) non-uniformity of scanner response using a uniform cylinder source-based normalization, (b) dead time count losses using a singles count rate-based global correction, (c) physical decay to the time of injection, and (d) the ^124I branching ratio. There was no correction applied for attenuation, scatter or partial-volume averaging. The count rates in the reconstructed images were converted to activity concentration (% of injected dose per gram of tissue, % ID/g) using a system calibration factor (μCi/ml/cps/voxel) derived from imaging of a rat-size phantom filled with a uniform aqueous solution of ^18F.
PET image analysis was performed using ASIPro™ software (Concorde Microsystems Inc., Knoxyille, Tenn.). For each PET scan, regions of interest (ROIs) were manually drawn over tumor, liver, skeletal muscle and heart.
For data set [3], the system named is E. coli Nissle. Conditions: in the absence of bacteria.
Text: Using the data obtained in Example 2 for in vivo [^18F]-FEAU uptake, tumor radioactivity (% ID/g), corrected for background radioactivity, was plotted against the number of bacterial colony forming units per gram for each of the tumors imaged.
The subject of data set [4] is E. coli Nissle. The data set is described as follows: [18F]-FEAU uptake by tissue sampling, tumor-to-organ radioactivity ratios. Type of data set: in vivo, mice. Conditions: after EcN administration, p<0.02. On the procedure:
In vivo uptake of [^18F]-FEAU was measured in a separate experiment by measurement of tumor-to-organ (liver, spleen, heart and lung) [^18F]-FEAU radioactivity ratios via tissue sampling. […] Euthanized mice were rinsed with 100% ethanol prior to tissue removal. Organs, including liver, lung, spleen and heart, were sampled and weighed before radioactivity was measured. Tumor tissue was weighed and homogenized in 1 ml PBS. Serial dilutions of the homogenized sample were plated on L-arabinose containing LB-agar plates. […] The remaining tumor suspension and organ samples were assayed for radioactivity in a gamma counter (Packard, United Technologies, Downers Grove, Ill.). [^18F]-FEAU radioactivity (% ID/g) in the samples was determined and tumor-to-organ ratios calculated. To assess the correlation between radioactivity and scintillation counter measurements, the Pearson correlation coefficient was computed.

The subject of data set [5] is E. coli Nissle. The data set is described as follows: In vivo [124I]-FIAU PET distribution over time in 4T1 xenograft mice. On the procedure:
Mice bearing 4T1 xenografts were generated as described in Example 2. Prior to intravenous administration of ^[124I]-FIAU, three mice were injected with EcN-bacteria and 3 mice with PBS (control). 37 MBq (1000 μCi) of [^124I]-FIAU was injected into each animal intravenously 72 h after bacterial injection. Potassium iodide was used to block the uptake of radioactive iodine by the thyroid. Imaging of [^124I]-FIAU uptake by PET was obtained 4, 8, 12, 24, 48 and 72 h after tracer administration with 10 minute list acquisition at the 4 h and 8 h imaging time points, 15 minute at the 12 h time point, 30 minute at 24 h time point and 60 minute at the 48 h and 72 h time points. After tracer administration and between imaging time points, the animals were allowed to awake and maintain normal husbandry.

Setting [6] is: 4T1 tumors, without/prior to EcN injection.
Setting [7] is: tracer 16 h after EcN injection.
The mark [8] stands for this setting: tracer 72 h after EcN injection.

Read-outs that look alike come from different tables or passages of the source.

On to `OC[C@H]1OC(O)[C@H]([18F])[C@@H](O)[C@@H]1O` (stereo partly drawn) [[^18F]-FDG, 2′-[^18F]fluoro-2′deoxy-D-glucose], for which the “enrichment of radioactivity within EcN-bacteria compared to the remaining LB-broth” value in data set [1] is listed as 120 fold. Besides, the “enhancement of the tracer signal (tumor-to-organ ratios post-EcN vs pre-EcN)” value in data set [2] (16 h after EcN injection) was about 1.7 fold; in data set [2] (72 h after EcN injection), about 1.4 fold. Also, the figures for the “tumor-to-organ ratio, heart” value in data set [2] (setting [6]), in data set [2] (setting [7]) and in data set [2] (setting [8]) were 0.23±0.12, 0.31±0.8 and 0.31±0.17, respectively. Also, the results for the “tumor-to-organ ratio, liver” value in data set [2] (setting [6]), in data set [2] (setting [7]) and in data set [2] (setting [8]) were 1.6±0.4, 2.6±0.5 and 2.2±0.8, respectively. The “tumor-to-organ ratio, muscle” value in data set [2] (setting [6]) is recorded as 3.3±0.7; in data set [2] (setting [7]), 5.4±1.1; in data set [2] (setting [8]) it was 4.3±1.2.

For the compound `CCc1cn([C@@H]2O[C@H](CO)[C@@H](O)[C@@H]2[18F])c(=O)[nH]c1=O` [[^18F]-FEAU, 2′-[^18F]fluoro-2′deoxy-1-β-D-arabinofuranosyl-5-ethyl-uracil], the “enrichment of radioactivity within EcN-bacteria compared to the remaining LB-broth” value in data set [1] worked out at 6.5 fold. Besides, the “accumulation in 4T1 xenografts” value in data set [3] is reported as “near background levels”. Besides, the “enhancement of the tracer signal (tumor-to-organ ratios post-EcN vs pre-EcN)” value in data set [2] (16 h after EcN injection) is about 1.6 fold; in data set [2] (72 h after EcN injection), about 2.1 fold. Further, the “tumor-to-organ ratio, heart” value was 1.4±0.3 in data set [2] (setting [6]), 2.1±0.6 in data set [2] (setting [7]) and 2.9±0.8 in data set [2] (setting [8]). Further, the “tumor-to-organ ratio, liver” value worked out at 1.4±0.3 in data set [2] (setting [6]), 2.0±0.7 in data set [2] (setting [7]) and 2.4±0.8 in data set [2] (setting [8]). Besides, the “tumor-to-organ ratio, muscle” value in data set [2] (setting [6]) worked out at 1.7±0.4; in data set [2] (setting [7]), 2.6±0.8; in data set [2] (setting [8]), 3.0±1.3. Further, in data set [2] (in the absence of EcN injection), the uptake in tumors entry is “much lower than that of [^18F]-FDG”. For the same compound, in data set [4], the “tumor to organ ratio (liver, spleen, heart, lung) by tissue sampling” value was “increased significantly”.

Regarding `O=c1[nH]c(=O)n([C@@H]2O[C@H](CO)[C@@H](O)[C@@H]2F)cc1I` [[^124I]-FIAU, 5-iodo-2′-fluoro-2′deoxy-1-β-D-arabino-furanosyl-uracil], in data set [5] (4 and 8 h acquisition time points), the “background radioactivity in PET images” value is given as “very high background radioactivity”. In data set [5] (48 and 72 h after tracer, EcN-treated animals), the tumor/background ratios entry is recorded as “greater than 5”. The “enrichment in the bacteria-treated tumors versus control tumors” value in data set [5] (tracer 72 h after bacterial injection) is 2.5 fold. For the same compound, in data set [3], the “accumulation in 4T1 xenografts” value is reported as “low levels above background”.
